Test results reported in patent US20260098008A1, “COVALENT, CHEMOGENETIC ACTIVATORS FOR K2P POTASSIUM CHANNELS AND USES THEREOF” (THE REGENTS OF THE UNIVERSITY OF CALIFORNIA, priority 2022, published 2026).
Residue numbers refer to the chain shown, from its start.

How the values were obtained:
[1] = biological target: T1, A286F TREK-1^CG* (Mus musculus, UniProt P97438, A301F/S146C); test: Resting membrane potential, current-clamp (I=0) in HEK293 cells; assay type: cell-based; conditions: 20 μM CAT335
T1 construct: expressed in transfected cells; host or cells: Xenopus laevis oocytes injected with mRNA
T1 sequence (P97438 1-411 isoform P97438-2 S131C/A286F): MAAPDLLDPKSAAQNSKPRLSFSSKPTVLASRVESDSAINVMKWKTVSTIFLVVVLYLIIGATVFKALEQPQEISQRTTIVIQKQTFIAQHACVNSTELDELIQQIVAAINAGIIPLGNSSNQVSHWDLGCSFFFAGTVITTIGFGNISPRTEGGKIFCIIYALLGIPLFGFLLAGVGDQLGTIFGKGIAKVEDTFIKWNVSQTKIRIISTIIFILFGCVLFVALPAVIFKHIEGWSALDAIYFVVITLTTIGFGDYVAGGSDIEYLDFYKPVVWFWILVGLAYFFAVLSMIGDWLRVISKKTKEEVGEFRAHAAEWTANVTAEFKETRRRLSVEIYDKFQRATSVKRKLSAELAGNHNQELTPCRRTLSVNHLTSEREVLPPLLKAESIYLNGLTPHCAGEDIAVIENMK
From the text: (§1) Mouse K2P2.1 (TREK-1) (Genbank accession number: NP_034737.2), mouse K2P10.1 (TREK-2) (NM_001316665.1), mouse K2P4.1 (TRAAK) (NM_008431.3), human K2P4.1 (TRAAK) (NM_033310.2) and mouse K2P18.1(TRESK) (NM_207261.3) were used for this study. Point mutations were introduced by site-directed mutagenesis using custom primers and confirmed by sequencing before use. For studies using Xenopus oocytes, K2P channels were subcloned into a previously reported pGEMHE/pMO vector (46). For expression in HEK293 cells, mouse K2P2.1 (TREK-1) and mutants were expressed from a previously described pIRES2-EGFP vector in HEK293 cells (46,47). K2P2.1 (TREK-1) tandems were constructed by connecting the open reading frames for the individual subunits with a linker encoding the […] (SEQ ID NO: 19) sequence. Tandems used for HEK293 cells included an N-terminal HA tag ([…] (SEQ ID NO: 20)) on the first subunit.
(§2) 50% confluent cells were co-transfected (in 35-mm diameter wells) with 10-100 ng of the K2P2.1 plasmid and 400 ng of an eGFP plasmid (for visualization) using LipofectAMINE 2000 (Invitrogen) for 24 h, after which the cells were either plated onto coverslips or the media exchanged with fresh media. […]
(§3) Whole-cell patch-clamp experiments with K2P2.1(TREK-1) and mutants were carried out 24-48 h after transfection. […] Data were analyzed using Clampfit 11 and GraphPad Prism 9.

[2] = biological target: T2, TREK-1^CG* (Mus musculus, UniProt P97438, S146C); test: as above; assay type: cell-based; conditions: 20 μM CAT335
T2 construct: expressed in transfected cells; host or cells: HEK293 (pIRES2-EGFP vector)
T2 sequence (P97438 1-411 isoform P97438-2 S131C): T1 sequence (P97438 1-411 isoform P97438-2 S131C/A286F) with F286A
From the text: as §1, §2, §3

[3] = tested on: HEK293 cells (no exogenous K2P expression); test: Resting membrane potential, current-clamp (I=0) in control HEK293 cells; assay type: cell-based; conditions: 20 μM CAT335
Method: 50% confluent cells were co-transfected (in 35-mm diameter wells) with 10-100 ng of the K2P2.1 plasmid and 400 ng of an eGFP plasmid (for visualization) using LipofectAMINE 2000 (Invitrogen) for 24 h, after which the cells were either plated onto coverslips or the media exchanged with fresh media. Cells were plated onto Matrigel coated coverslips (BD Biosciences) 1-2 hours before experiments.
Whole-cell patch-clamp experiments with K2P2.1(TREK-1) and mutants were carried out 24-48 h after transfection. Acquisition and analysis for voltage-clamp experiments were performed using pCLAMP10 and an Axopatch 200B amplifier (Molecular Devices). Current-clamp experiments were acquired using an […] amplifier (Molecular Devices). Pipettes were pulled using a Flaming/Brown micropipette puller (P-97, Sutter Instruments) and flame-polished using a MF-830 microforge (Narishige). Electrode resistance after filling with pipette internal solution ranged from 2 to 5 MΩ. Currents were low-pass filtered at 2 kHz and sampled at 10 kHz. Pipette solution contained the following: 145 mM KCl, 3 mM MgCl2, 5 mM EGTA and 20 mM HEPES (pH 7.2 with KOH). Bath solution contained the following: 145 mM NaCl, 5 mM KCl, 1 mM CaCl2, 3 mM MgCl2 and 20 mM HEPES (pH 7.4 with NaOH). […] Data were analyzed using Clampfit 11 and GraphPad Prism 9.

[4] = Solubility in aqueous solutions (crystallization sample preparation); assay type: physicochemical
Method: K2P2.1cryst ML335 and ML402 complex crystals grew in the same conditions as K2P2.1cyst, but the protein was incubated for at least 1 h with 2.5 mM of activator before setting the crystal plates. […] Then each compound was diluted 1:100 in SEC buffer to 5 mM concentration, giving a milky solution. This solution was mixed 1:1 to K2P2.1cryst previously concentrated to 12 mg ml^−1. […] The samples were briefly centrifuged in a table-top centrifuge (10,000 g) to remove any insoluble material before setting the crystal plates.

| Change of resting membrane potential (ΔRMP) [1] | Change of resting membrane potential (ΔRMP) [2] | Solubility in aqueous solutions [4] | Structure (SMILES) | Change of resting membrane potential (ΔRMP) [3] |
| --- | --- | --- | --- | --- |
| −27 mV | −6 mV | – | O=C(NCc1ccc(Cl)cc1Cl)c1ccc(N2C(=O)C=CC2=O)cc1 [CAT335] | +7 mV |
| – | – | insoluble in aqueous solutions | CS(=O)(=O)Nc1ccc(C(=O)NCc2ccc(Cl)cc2Cl)cc1 [ML335, reference compound] | – |
